# ChEMBL document CHEMBL1201862, “PubChem BioAssay data set” (2004)
# Activity calls are given as the source filed them.
# What was measured:
# Streptococcus = test: Group A Streptococcus viability loss, dose response, counter-screen for streptokinase expression inhibitor project, luminescence, BacTiterGlo (AID 1915); assay type: functional, organism-based;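 note: potency for reduction of bacterial viability or growth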
# Streptokinase A = target: T1, Streptokinase A (Streptococcus pyogenes serotype M1, UniProt P10520); test: S. pyogenes streptokinase expression inhibitors, potency, dose response, plasminogen activation absorbance, OD405 (AID 1914); assay type: functional, Streptococcus pyogenes M1 GAS;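 note: secreted streptokinase activity via plasminogen activation per viability signal from cell pellet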
# T1 sequence (P10520 whole entry): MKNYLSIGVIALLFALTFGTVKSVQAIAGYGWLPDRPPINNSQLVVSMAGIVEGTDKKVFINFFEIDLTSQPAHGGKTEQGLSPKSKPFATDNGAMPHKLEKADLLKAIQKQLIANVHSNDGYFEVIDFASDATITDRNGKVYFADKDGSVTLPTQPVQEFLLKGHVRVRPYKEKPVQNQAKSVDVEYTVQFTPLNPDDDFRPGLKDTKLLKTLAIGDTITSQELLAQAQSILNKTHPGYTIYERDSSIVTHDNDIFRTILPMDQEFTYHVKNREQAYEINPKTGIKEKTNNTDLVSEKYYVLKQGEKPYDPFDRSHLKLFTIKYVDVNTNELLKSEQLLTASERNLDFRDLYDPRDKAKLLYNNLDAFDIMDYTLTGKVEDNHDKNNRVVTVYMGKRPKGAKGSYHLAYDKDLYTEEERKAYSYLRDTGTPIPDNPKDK
# [1] = tested on: Streptococcus sp. 'group A'; test: growth inhibition of control SK(-) GAS strain, dose response, counter-screen for streptokinase expression inhibitor project, luminescence, kanamycin, BacTiterGlo, confirmation (AID 1900); assay type: functional, organism-based
# cells = assay type: functional
# [2] = Luminescence Cell-Based Dose Response HTS to Identify Activators of Luciferase Translation or Activity in H4 […] Cells. [Related pubchem assays: 1829 (Project Summary), 1814 (Primary HTS)]; assay type: functional
# [3] = Luminescence Cell-Based Dose Confirmation HTS to Identify Activators of 5'UTR Stem-Loop Driven Alpha-Synuclein mRNA Translation in H4 Neuroglioblastoma Cells. [Related pubchem assays: 1829 (Project Summary), 1814 (Primary HTS)]; assay type: functional
# H4 = test: Luminescence Cell-Based Dose Response HTS to Identify Activators of 5'UTR Stem-Loop Driven Prion Protein mRNA Translation in H4 Neuroglioblastoma Cells. [Related pubchem assays: 1829 (Project Summary), 1814 (Primary HTS)]; assay type: functional; conditions: Homo sapiens
# [4] = target: T2, Carboxy-terminal domain RNA polymerase II polypeptide A small phosphatase 1 (Homo sapiens, UniProt Q9GZU7); test: inhibitors of CTDSP1, concentration-response testing, biochemical assay, absorbance-based, actives from ultra-high-throughput screening (AID 540297); assay type: functional
# T2 sequence (Q9GZU7 whole entry): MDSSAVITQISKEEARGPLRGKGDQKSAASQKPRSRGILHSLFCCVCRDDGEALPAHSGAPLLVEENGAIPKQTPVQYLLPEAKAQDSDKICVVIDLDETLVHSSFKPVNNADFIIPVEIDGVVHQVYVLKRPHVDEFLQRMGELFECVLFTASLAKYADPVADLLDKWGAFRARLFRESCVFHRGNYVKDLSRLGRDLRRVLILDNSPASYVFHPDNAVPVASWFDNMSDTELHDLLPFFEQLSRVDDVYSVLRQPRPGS
# Cytochrome P450 2C19 = Cytochrome P450 2C19 (Homo sapiens, UniProt P33261); test: Cytochrome panel assay with activity outcomes. Panel member name: p450-cyp2c19 Compounds with AC50 equal or less than 10 uM are considered active; assay type: functional; conditions: read-out: AC50
# [5] = NIH-3T3 fibroblast cytotoxicity, dose response, cytotoxicity control, cell-based, fluorescence, Alamar Blue, secondary assay (AID 2327); assay type: functional;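 note: NIH-3T3 mouse fibroblasts cultured with fluconazole at 8 µg/mL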
# [6] = HEp-2 cell cytotoxicity, dose response, cytotoxicity control for RSV inhibitor project, HTS (AID 2410); assay type: functional; conditions: human respiratory syncytial virus
# Protein skinhead-1 = target: T3, Protein skinhead-1 (Caenorhabditis elegans, UniProt P34707); assay type: functional
# T3 sequence (P34707 whole entry): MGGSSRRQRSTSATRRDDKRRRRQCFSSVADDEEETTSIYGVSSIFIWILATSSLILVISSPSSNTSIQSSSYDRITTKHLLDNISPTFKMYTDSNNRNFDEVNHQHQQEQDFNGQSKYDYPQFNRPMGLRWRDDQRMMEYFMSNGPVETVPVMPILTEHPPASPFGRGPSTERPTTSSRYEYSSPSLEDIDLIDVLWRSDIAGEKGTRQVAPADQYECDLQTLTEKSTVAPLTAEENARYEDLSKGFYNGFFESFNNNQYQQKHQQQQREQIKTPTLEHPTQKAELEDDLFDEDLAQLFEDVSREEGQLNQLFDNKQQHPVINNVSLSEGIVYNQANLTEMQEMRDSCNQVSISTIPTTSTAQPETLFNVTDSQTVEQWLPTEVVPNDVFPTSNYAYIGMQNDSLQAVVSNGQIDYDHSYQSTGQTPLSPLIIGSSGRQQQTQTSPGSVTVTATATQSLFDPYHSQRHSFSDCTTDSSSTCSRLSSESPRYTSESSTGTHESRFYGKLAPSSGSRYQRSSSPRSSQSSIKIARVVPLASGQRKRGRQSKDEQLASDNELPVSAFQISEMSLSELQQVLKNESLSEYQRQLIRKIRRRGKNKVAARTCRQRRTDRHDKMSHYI
# [7] = Shn3 3'UTR reporter inhibitors, dose response, cell-based, Clone20 osteoblasts, firefly luciferase, cherry-picked (AID 624132); assay type: functional;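 note: firefly luciferase luminescence from reporter carrying the Shn3 3'UTR in osteoblasts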
# [8] = control 3'UTR Renilla luciferase suppression, dose response, counter-screen for Shn3 inhibitor project, cell-based, Clone20-Shn3RL, cherry-picked (AID 624133); assay type: functional
# BJ [9] = test: cytotoxicity toward BJ-TERT fibroblasts, dose response, cell-based, RAS-independent, luminescence (AID 1933); assay type: functional; conditions: Homo sapiens
# BJ [10] = test: cells; assay type: functional, cell-based; conditions: Homo sapiens
# BJ [11] = test: cytotoxicity toward BJ-TERT-LT-ST fibroblasts, dose response, cell-based, RAS-independent, luminescence (AID 1935); assay type: functional; conditions: Homo sapiens;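 note: BJ fibroblasts immortalized with TERT plus LT and ST oncogenes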
# [12] = cytotoxicity toward DRD oncogenic fibroblasts, dose response, cell-based, non-viral oncogenic, luminescence (AID 1934); assay type: functional; conditions: Homo sapiens
# Cytochrome P450 2C19, sequence (P33261 whole entry): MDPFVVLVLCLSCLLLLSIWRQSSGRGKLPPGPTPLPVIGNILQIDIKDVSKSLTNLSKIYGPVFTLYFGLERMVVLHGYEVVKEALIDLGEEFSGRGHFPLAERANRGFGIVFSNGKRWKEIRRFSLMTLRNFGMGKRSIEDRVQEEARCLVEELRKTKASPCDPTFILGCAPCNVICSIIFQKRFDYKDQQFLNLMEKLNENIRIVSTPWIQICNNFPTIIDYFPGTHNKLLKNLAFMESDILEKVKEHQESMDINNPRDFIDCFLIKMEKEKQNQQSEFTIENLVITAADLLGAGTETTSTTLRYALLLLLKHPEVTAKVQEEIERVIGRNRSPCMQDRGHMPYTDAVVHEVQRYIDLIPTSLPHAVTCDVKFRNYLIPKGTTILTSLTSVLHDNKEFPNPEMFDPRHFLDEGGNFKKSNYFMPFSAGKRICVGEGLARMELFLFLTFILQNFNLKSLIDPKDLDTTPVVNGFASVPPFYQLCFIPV
smiles,measurement,setting,value
CCOc1ccccc1C(=O)OCC(=O)Nc1nnc(-c2ccccc2)o1,EC50,Streptococcus,14.6 µM (active)
same,EC50,Streptokinase A,> 150 µM (not active)
same,EC50,[1],4.56 µM (active)
same,IC50,cells,19.2 µM (active)
COc1cc(/C=C2\C=CC(=O)O2)cc(OC)c1,EC50,[2],12.2 µM (active)
same,EC50,[3],13.3 µM (active)
same,EC50,H4,> 120 µM (not active)
Cc1ccc2cc(C)c3nnc(SCC(=O)NCc4ccco4)n3c2c1,IC50,[4],8.54 µM (active)
same,AC50,Cytochrome P450 2C19,14.1 µM (inconclusive)
CCOc1ccc(CNC(=O)Cn2nc(C)c3c(C)n(-c4ccc(C)cc4)nc3c2=O)cc1,IC50,[4],6.46 µM (active)
O=C(Cn1cnc2sc(-c3ccccc3)cc2c1=O)NCc1ccccc1,IC50,[4],7.5 µM (active)
C=C(C)CCOC(=O)C(CC(=O)O)NCc1ccco1 (stereo not drawn),IC50,[4],4.85 µM (active)
O=C(NC(=S)N1CCN(C/C=C/c2ccccc2)CC1)c1ccco1,IC50,cells,32.2 µM (active)
O=C(C1=NNCC1c1ccccc1)C1OC1c1ccccc1 (stereo not drawn),EC50,[2],13.5 µM (active)
same,EC50,[3],20.8 µM (active)
same,EC50,H4,> 120 µM (not active)
Sc1c2c(nc3ncnn13)CCC2,IC50,cells,16.6 µM (active)
Cc1cccc(NC(S)=NNC(=O)c2csc(C(C)C)c2)c1,EC50,[2],36.9 µM (active)
same,EC50,[3],20.3 µM (active)
same,EC50,[5],> 150 µM (inactive)
same,CC50,[6],27.1 µM (active)
CCCOC(=O)c1ccc(-c2ccc(C=O)o2)cc1,IC50,cells,9.73 µM (active)
O=C1C(Cl)=C(N2CCOCC2)C(=O)N1CCc1ccccc1,EC50,[2],1.56 µM (active)
same,EC50,[3],0.656 µM (active)
same,EC50,H4,> 120 µM (not active)
C=CCN1C(=O)C(=O)N(Cc2nc3ccccc3s2)C1=O,EC50,[2],36.3 µM (active)
same,EC50,[3],10.7 µM (active)
same,EC50,H4,0.283 µM (active)
same,IC50,Protein skinhead-1,> 100 µM (inactive)
COc1ccc(NN=Nc2ccc([N+](=O)[O-])cc2)cc1,EC50,[2],0.485 µM (active)
same,EC50,[3],1.01 µM (active)
same,EC50,H4,64.4 µM (active)
C=CCNC(=O)c1cc2c(=O)n3ccccc3nc2s1,EC50,[2],0.166 µM (active)
same,EC50,[3],1.08 µM (active)
same,IC50,Protein skinhead-1,> 100 µM (inactive)
COc1cc(Cl)c(C)cc1NC(=O)CSc1sc2c(O)cc(=O)[nH]c2c1C#N,IC50,[4],2.46 µM (active)
O=C(C1=C[C@@H](C2CC2)C[C@@H](OCCCCO)O1)N1CCN(Cc2ccccc2)CC1,AC50,[7],> 70 µM (inactive)
same,AC50,[8],> 70 µM (inactive)
CC1=CC(C)(C)N(C(=O)CCl)c2cc(C)ccc21,EC50,BJ [9],5.77 µM (active)
same,EC50,BJ [10],> 150 µM (not active)
same,EC50,BJ [11],> 150 µM (not active)
same,EC50,[12],29.8 µM (active)
NC(=O)c1ccc(NC(=O)COC(=O)c2cc3c(s2)CCC3)cc1,IC50,[4],4.91 µM (active)
